Tests used:
[1] = Plasma exposure after single oral dose in KATO III tumor-bearing mice; assay type: in vivo, mouse; details: single oral dose of 0.1, 1, and 10 mg/kg
Description: (A) Pharmacokinetic profile of INCB054828 in the mouse. […] (B) Pharmacokinetic-pharmacodynamic analyses in KATO III tumors. […] Plasma was subjected to analytical analysis and phospho-FGFR2 in tumor homogenate was determined by ELISA.

[2] = molecular target: LCK (Homo sapiens, UniProt P06239); assay: Enzyme selectivity panel; assay type: biochemical; details: 1 mM ATP
Description: (§2) The kinase assays were carried out at room temperature in HEPES 50 mM, pH 7.0, NaN3 0.02%, BSA 0.01%, Orthovanadate 0.1 mM, DTT 1 mM, MgCl2 10 mM in a final volume of 10 µL. Test compounds were transferred to the plate wells by ECHO liquid handler (Labcyte, San Jose, CA) with 0.5% dimethyl sulfoxide (DMSO) in the final assay. Peptide/kinase mixtures were diluted in the appropriate enzymatic buffer and 5µL of the mixture was added to a 384-well small volume black plate. Reactions were initiated by the addition of 5 µL ATP in reaction buffer, the final reaction mixture consisted of 500 nM peptide substrate, 1 mM ATP, and appropriate amount of specific kinase. […] The plates were then sealed and centrifuged at 1800 rpm for 2 minutes. […] Half maximal inhibitory concentration (IC50) determination was performed by fitting the curve of percent control activity versus the log of the compound concentration using the GraphPad Prism 6.0 software.

[3] = tested on: J82; assay: Cell viability assay (CellTiter-Glo); assay type: cell-based; details: Homo sapiens, Bladder, lacking FGFR alterations
[4] = molecular target: FAK (Homo sapiens, UniProt Q05397); assay: Enzyme selectivity panel; assay type: biochemical; details: 1 mM ATP
Description: as §2

[5] = molecular target: T1, ROCK1 (Homo sapiens, UniProt Q13464); assay: Enzyme selectivity panel; assay type: biochemical; details: 1 mM ATP
T1 sequence (Q13464 whole entry, species assumed): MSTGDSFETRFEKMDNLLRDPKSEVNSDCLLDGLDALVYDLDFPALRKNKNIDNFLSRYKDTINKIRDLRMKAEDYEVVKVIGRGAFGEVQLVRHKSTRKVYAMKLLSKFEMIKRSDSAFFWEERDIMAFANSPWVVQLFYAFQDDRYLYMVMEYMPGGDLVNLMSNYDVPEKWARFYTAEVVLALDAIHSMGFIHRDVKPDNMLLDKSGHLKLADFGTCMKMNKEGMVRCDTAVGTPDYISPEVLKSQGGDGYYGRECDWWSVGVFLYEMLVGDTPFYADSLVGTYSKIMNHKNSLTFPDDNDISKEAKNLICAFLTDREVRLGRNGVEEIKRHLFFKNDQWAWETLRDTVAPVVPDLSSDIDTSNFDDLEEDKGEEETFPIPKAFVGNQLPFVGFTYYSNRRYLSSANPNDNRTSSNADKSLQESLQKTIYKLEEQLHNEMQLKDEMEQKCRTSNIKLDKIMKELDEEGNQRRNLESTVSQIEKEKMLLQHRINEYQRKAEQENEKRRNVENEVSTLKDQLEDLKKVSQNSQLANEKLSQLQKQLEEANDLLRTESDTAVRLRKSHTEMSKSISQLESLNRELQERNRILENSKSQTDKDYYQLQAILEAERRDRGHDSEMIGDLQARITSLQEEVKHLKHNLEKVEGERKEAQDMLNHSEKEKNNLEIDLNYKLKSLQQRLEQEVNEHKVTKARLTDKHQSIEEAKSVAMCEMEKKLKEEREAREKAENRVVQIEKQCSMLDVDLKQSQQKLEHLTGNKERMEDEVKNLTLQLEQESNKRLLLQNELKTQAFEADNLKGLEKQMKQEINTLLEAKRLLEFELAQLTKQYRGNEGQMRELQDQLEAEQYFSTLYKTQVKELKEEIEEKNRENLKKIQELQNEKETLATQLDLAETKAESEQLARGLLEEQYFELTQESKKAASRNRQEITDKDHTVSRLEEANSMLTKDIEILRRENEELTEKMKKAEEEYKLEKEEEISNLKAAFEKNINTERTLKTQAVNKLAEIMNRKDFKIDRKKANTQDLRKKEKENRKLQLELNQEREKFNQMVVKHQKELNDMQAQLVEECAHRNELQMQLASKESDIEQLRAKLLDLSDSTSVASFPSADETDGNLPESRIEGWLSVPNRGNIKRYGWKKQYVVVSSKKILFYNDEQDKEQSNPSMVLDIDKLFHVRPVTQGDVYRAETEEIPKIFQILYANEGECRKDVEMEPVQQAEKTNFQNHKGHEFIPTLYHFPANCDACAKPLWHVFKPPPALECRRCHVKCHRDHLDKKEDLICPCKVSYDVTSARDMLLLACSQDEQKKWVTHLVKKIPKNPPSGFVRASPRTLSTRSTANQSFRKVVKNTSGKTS
Description: as §2

[6] = tested on: serum inorganic phosphate; assay: Serum phosphate pharmacodynamic study; assay type: in vivo, C57BL/6 mice; details: single oral dose
Description: Female C57BL/6 mice, 5–8 weeks of age, were obtained from Charles River Laboratories. […] Twenty-four hours after dosing, mice were anesthetized under isoflurane. Approximately 200 μL of whole blood was collected by capillary retro-orbital sinus sampling into lithium heparin collection tubes (RAM Scientific, Yonkers, NY). Blood was maintained at 4°C and transported for analysis to DuPont Haskell Global Centers for Health and Environmental Science (Newark, DE). Each sample was analyzed for levels of inorganic phosphate within 4 hours of receipt. Serum clinical chemistry parameters were determined using an Olympus® AU640 clinical chemistry analyzer (Beckman Coulter, Brea, CA). Both phosphate and calcium are manufacturer-supplied reagents and methods.

[7] = molecular target: PRKAA1 (Homo sapiens, UniProt Q13131); assay: Enzyme selectivity panel; assay type: biochemical; details: 1 mM ATP
Description: as §2

[8] = molecular target: RSK2 (Homo sapiens, UniProt P51812); assay: Enzyme selectivity panel; assay type: biochemical; details: 1 mM ATP
Description: as §2

[9] = tested on: KMS-11 (myeloma); assay: Cell viability assay (CellTiter-Glo); assay type: cell-based; details: Homo sapiens, IgH-FGFR3 translocation, 72 hours, read-out: Mean GI50 ± S.D.
[10] = molecular target: T2, Ca MKII_beta (Homo sapiens, UniProt Q13554); assay: Broader kinase panel (PerkinElmer); assay type: biochemical; details: 100 nM; read-out: Average Percent Inhibition
T2 construct: purchased In-house HTRF panel (56 kinases) and PerkinElmer (161-kinase panel)
Text: (§1) […]. […] […].

[11] = molecular target: T3, DYRK1B (Homo sapiens, UniProt Q9Y463); assay: Broader kinase panel (PerkinElmer); assay type: biochemical; details: 100 nM; read-out: Average Percent Inhibition
T3 construct: purchased In-house HTRF panel (56 kinases) and PerkinElmer (161-kinase panel)
Text: as §1

[12] = molecular target: T4, TYRO3 (Homo sapiens, UniProt Q06418); assay: Broader kinase panel (PerkinElmer); assay type: biochemical; details: 100 nM; read-out: Average Percent Inhibition
T4 construct: purchased In-house HTRF panel (56 kinases) and PerkinElmer (161-kinase panel)
Text: as §1

[13] = molecular target: T5, ALK (Homo sapiens, UniProt Q9UM73); assay: Broader kinase panel (PerkinElmer); assay type: biochemical; details: 100 nM; read-out: Average Percent Inhibition
T5 construct: purchased In-house HTRF panel (56 kinases) and PerkinElmer (161-kinase panel)
Text: as §1

[14] = molecular target: AKT1 (Homo sapiens, UniProt P31749); assay: Broader kinase panel (PerkinElmer); assay type: biochemical; details: 100 nM; read-out: Average Percent Inhibition
Text: as §1

[15] = molecular target: T6, ABL1(E255K) (Homo sapiens, UniProt P00519, E255K); assay: Broader kinase panel (PerkinElmer); assay type: biochemical; details: 100 nM; read-out: Average Percent Inhibition
T6 construct: purchased In-house HTRF panel (56 kinases) and PerkinElmer (161-kinase panel)
Text: as §1

[16] = molecular target: T7, Ca MK2a (Homo sapiens, UniProt Q9UQM7); assay: Broader kinase panel (PerkinElmer); assay type: biochemical; details: 100 nM; read-out: Average Percent Inhibition
T7 construct: purchased In-house HTRF panel (56 kinases) and PerkinElmer (161-kinase panel)
Text: as §1

[17] = molecular target: T8, TRKC (NTRK3) (Homo sapiens, UniProt Q16288); assay: Broader kinase panel (PerkinElmer); assay type: biochemical; details: 100 nM; read-out: Average Percent Inhibition
T8 construct: purchased In-house HTRF panel (56 kinases) and PerkinElmer (161-kinase panel)
Text: as §1

[18] = molecular target: T9, FES (Homo sapiens, UniProt P07332); assay: Broader kinase panel (PerkinElmer); assay type: biochemical; details: 100 nM; read-out: Average Percent Inhibition
T9 construct: purchased In-house HTRF panel (56 kinases) and PerkinElmer (161-kinase panel)
Text: as §1

[19] = molecular target: T10, PIM1 (Homo sapiens, UniProt P11309); assay: Broader kinase panel (PerkinElmer); assay type: biochemical; details: 100 nM; read-out: Average Percent Inhibition
T10 construct: purchased In-house HTRF panel (56 kinases) and PerkinElmer (161-kinase panel)
Text: as §1

[20] = molecular target: T1, ROCK1; assay: Broader kinase panel (PerkinElmer); assay type: biochemical; details: 100 nM; read-out: Average Percent Inhibition
Text: as §1

[21] = molecular target: T11, MST1 (Homo sapiens, UniProt Q13043); assay: Broader kinase panel (PerkinElmer); assay type: biochemical; details: 100 nM; read-out: Average Percent Inhibition
T11 construct: purchased In-house HTRF panel (56 kinases) and PerkinElmer (161-kinase panel)
T11 sequence (Q13043 whole entry): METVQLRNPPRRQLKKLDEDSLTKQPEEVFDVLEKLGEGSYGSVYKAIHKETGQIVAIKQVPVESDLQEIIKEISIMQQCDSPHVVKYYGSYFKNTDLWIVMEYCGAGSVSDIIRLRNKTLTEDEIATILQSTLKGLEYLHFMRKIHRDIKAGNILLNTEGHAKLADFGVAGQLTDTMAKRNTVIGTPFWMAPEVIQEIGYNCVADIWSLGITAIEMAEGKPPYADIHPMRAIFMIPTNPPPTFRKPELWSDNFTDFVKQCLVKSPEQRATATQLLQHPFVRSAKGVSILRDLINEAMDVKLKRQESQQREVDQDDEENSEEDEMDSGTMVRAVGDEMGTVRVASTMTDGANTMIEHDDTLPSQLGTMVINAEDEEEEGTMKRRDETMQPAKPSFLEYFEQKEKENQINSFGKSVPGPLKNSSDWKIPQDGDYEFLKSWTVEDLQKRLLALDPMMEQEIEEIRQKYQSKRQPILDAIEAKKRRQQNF
Text: as §1

[22] = molecular target: EPHA2 (Homo sapiens, UniProt P29317); assay: Broader kinase panel (PerkinElmer); assay type: biochemical; details: 100 nM; read-out: Average Percent Inhibition
Text: as §1

[23] = molecular target: T12, MET (Homo sapiens, UniProt P08581); assay: Broader kinase panel (PerkinElmer); assay type: biochemical; details: 100 nM; read-out: Average Percent Inhibition
T12 construct: purchased In-house HTRF panel (56 kinases) and PerkinElmer (161-kinase panel)
T12 sequence (P08581 25-1390): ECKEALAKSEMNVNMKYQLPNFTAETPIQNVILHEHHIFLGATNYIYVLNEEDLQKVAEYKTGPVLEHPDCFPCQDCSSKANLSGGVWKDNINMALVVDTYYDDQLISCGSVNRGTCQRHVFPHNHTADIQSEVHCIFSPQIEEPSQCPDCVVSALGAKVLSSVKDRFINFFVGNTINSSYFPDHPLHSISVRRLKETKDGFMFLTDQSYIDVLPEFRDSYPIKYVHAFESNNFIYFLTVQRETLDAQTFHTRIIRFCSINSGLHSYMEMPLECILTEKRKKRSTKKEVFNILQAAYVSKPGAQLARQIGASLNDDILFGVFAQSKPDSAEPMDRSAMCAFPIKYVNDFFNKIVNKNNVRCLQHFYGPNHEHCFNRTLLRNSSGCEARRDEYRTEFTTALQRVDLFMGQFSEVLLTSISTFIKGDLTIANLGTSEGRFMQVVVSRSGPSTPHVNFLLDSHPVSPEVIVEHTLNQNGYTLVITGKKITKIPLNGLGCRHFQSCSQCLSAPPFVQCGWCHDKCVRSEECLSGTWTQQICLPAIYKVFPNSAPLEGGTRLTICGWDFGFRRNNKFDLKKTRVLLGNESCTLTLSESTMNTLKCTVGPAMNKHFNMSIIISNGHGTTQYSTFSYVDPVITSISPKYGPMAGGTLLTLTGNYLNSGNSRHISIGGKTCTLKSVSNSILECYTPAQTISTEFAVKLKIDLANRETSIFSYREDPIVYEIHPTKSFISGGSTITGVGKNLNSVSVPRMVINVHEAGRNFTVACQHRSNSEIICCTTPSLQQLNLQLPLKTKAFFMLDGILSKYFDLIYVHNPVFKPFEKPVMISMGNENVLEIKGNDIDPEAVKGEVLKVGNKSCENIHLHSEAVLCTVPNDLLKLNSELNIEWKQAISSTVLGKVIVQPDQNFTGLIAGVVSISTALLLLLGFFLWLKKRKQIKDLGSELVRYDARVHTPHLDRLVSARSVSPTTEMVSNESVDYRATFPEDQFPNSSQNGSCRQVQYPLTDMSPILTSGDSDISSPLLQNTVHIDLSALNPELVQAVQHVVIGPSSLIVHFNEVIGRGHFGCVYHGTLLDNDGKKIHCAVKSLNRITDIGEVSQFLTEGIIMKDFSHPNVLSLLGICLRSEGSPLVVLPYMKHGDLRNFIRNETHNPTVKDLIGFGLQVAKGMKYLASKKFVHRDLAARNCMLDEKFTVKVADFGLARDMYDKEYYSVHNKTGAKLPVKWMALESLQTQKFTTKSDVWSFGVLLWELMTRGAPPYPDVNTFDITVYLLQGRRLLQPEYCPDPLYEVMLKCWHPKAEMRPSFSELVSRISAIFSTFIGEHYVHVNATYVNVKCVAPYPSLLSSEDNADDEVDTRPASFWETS
Text: as §1

[24] = molecular target: T13, TXK (Homo sapiens, UniProt P42681); assay: Broader kinase panel (PerkinElmer); assay type: biochemical; details: 100 nM; read-out: Average Percent Inhibition
T13 construct: purchased In-house HTRF panel (56 kinases) and PerkinElmer (161-kinase panel)
Text: as §1

[25] = molecular target: T14, Flt3(D835Y) (Homo sapiens, UniProt P36888, D835Y); assay: Broader kinase panel (PerkinElmer); assay type: biochemical; details: 100 nM; read-out: Average Percent Inhibition
T14 construct: purchased In-house HTRF panel (56 kinases) and PerkinElmer (161-kinase panel)
Text: as §1

[26] = molecular target: T15, FLT4 (Homo sapiens, UniProt P35916); assay: Broader kinase panel (PerkinElmer); assay type: biochemical; details: 100 nM; read-out: Average Percent Inhibition
T15 construct: purchased In-house HTRF panel (56 kinases) and PerkinElmer (161-kinase panel)
Text: as §1

[27] = molecular target: SYK (Homo sapiens, UniProt P43405); assay: Enzyme selectivity panel; assay type: biochemical; details: 1 mM ATP
Description: as §2

[28] = tested on: KG1a (AML); assay: Cell viability assay (CellTiter-Glo); assay type: cell-based; details: Homo sapiens, KG-1a; FGFR1OP2-FGFR1 fusion; 72 hours; read-out: Mean GI50 ± S.D.
[29] = molecular target: JNK1 (Homo sapiens, UniProt P45983); assay: Enzyme selectivity panel; assay type: biochemical; details: 1 mM ATP
Sequence of JNK1 (P45983 whole entry, species assumed): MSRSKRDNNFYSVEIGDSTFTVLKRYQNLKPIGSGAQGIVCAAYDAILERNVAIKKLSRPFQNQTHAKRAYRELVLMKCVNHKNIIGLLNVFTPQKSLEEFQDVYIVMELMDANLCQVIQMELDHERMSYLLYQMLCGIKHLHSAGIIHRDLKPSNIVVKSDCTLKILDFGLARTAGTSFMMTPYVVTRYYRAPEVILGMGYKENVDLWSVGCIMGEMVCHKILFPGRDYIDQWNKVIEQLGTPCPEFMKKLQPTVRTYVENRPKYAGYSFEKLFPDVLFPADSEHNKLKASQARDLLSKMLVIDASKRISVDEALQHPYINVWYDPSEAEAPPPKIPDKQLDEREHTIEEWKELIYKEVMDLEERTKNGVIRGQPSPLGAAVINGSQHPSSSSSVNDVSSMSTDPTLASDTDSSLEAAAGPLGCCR
Description: as §2

[30] = molecular target: IKKB (Homo sapiens, UniProt O14920); assay: Enzyme selectivity panel; assay type: biochemical; details: 1 mM ATP
Description: as §2

[31] = molecular target: RPS6KB1 (Homo sapiens, UniProt P23443); assay: Enzyme selectivity panel; assay type: biochemical; details: 1 mM ATP
Description: as §2

[32] = molecular target: CAMK2D (Homo sapiens, UniProt Q13557); assay: Enzyme selectivity panel; assay type: biochemical; details: 1 mM ATP
Description: as §2

[33] = molecular target: ERBB4 (Homo sapiens, UniProt Q15303); assay: Enzyme selectivity panel; assay type: biochemical; details: 1 mM ATP
Description: as §2

[34] = molecular target: T16, PIM2 (Homo sapiens, UniProt Q9P1W9); assay: Enzyme selectivity panel; assay type: biochemical; details: 1 mM ATP
T16 construct: purchased In-house HTRF panel (56 kinases) and PerkinElmer (161-kinase panel)
T16 sequence (Q9P1W9 whole entry, species assumed): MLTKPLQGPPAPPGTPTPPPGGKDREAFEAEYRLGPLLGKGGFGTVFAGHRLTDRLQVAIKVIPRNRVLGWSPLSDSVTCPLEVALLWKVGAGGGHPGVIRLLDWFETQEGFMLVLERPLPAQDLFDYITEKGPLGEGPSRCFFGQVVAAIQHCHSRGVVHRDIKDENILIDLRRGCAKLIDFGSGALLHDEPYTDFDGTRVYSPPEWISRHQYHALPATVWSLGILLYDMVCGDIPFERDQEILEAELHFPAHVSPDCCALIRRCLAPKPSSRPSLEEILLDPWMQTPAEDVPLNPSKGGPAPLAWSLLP
Description: as §2

[35] = molecular target: RET (Homo sapiens, UniProt P07949); assay: Enzyme selectivity panel; assay type: biochemical; details: 1 mM ATP
Sequence of RET (P07949 29-1114, species assumed): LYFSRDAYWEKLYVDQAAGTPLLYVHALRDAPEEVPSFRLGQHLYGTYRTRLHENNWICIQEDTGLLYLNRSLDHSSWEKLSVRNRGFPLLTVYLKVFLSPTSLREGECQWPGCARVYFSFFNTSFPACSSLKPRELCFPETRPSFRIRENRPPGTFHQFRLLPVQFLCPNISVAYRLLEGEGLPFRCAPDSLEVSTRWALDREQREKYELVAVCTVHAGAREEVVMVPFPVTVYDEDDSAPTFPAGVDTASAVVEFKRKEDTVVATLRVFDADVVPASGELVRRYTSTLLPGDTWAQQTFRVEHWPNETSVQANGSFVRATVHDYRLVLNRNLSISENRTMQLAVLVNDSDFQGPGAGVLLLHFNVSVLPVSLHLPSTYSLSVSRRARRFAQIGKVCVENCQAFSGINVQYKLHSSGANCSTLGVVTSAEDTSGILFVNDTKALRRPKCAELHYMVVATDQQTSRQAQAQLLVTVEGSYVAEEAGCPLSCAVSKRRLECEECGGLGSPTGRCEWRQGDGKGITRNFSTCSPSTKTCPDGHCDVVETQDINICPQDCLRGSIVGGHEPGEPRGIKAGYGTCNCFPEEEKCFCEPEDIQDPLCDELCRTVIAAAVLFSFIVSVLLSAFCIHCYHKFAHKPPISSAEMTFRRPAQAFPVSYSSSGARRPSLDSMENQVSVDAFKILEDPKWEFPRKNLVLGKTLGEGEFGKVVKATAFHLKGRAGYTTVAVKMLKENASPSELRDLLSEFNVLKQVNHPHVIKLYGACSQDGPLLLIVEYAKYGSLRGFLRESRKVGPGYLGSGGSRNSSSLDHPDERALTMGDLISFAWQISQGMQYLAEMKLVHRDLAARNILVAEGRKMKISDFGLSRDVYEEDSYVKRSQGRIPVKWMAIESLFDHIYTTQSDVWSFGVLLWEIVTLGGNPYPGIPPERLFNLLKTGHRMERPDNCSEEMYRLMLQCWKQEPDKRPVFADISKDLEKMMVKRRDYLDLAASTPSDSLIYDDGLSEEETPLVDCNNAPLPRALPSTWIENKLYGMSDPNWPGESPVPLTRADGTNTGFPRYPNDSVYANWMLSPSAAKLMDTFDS
Description: as §2

[36] = molecular target: DYRK2 (Homo sapiens, UniProt Q92630); assay: Enzyme selectivity panel; assay type: biochemical; details: 1 mM ATP
Description: as §2

[37] = molecular target: T17, GSK3B (Homo sapiens, UniProt P49841); assay: Enzyme selectivity panel; assay type: biochemical; details: 1 mM ATP
T17 construct: purchased In-house HTRF panel (56 kinases) and PerkinElmer (161-kinase panel)
Description: as §2

CCN1C(=O)N(c2c(F)c(OC)cc(OC)c2F)Cc2cnc3[nH]c(CN4CCOCC4)cc3c21 [INCB054828, pemigatinib]
plasma exposures, dose dependence [1]: dose linear
IC50 [2]: > 10 µM
GI50 [3]: > 5 µM
IC50 [4]: > 10 µM
IC50 [5]: > 10 µM
average half maximal effective dose for phosphate induction ([6]; 2 independent experiments): 2.9 mg/kg
serum phosphorus ([6]; 24 hours after dosing): dose-dependent increase
IC50 [7]: > 10 µM
IC50 [8]: > 10 µM
GI50 [9]: 0.362 ± 0.282 µM
inhibition at 0.1 µM [10]: -9%
inhibition at 0.1 µM [11]: 7%
inhibition at 0.1 µM [12]: 1%
inhibition at 0.1 µM [13]: -1%
inhibition at 0.1 µM [14]: 2%
inhibition at 0.1 µM [15]: 6%
inhibition at 0.1 µM [16]: 2%
inhibition at 0.1 µM [17]: 3%
inhibition at 0.1 µM [18]: -11%
inhibition at 0.1 µM [19]: -6%
inhibition at 0.1 µM [20]: -3%
inhibition at 0.1 µM [21]: -1%
inhibition at 0.1 µM [22]: 3%
inhibition at 0.1 µM [23]: -2%
inhibition at 0.1 µM [24]: -7%
inhibition at 0.1 µM [25]: 1%
inhibition at 0.1 µM [26]: 38%
IC50 [27]: > 10 µM
GI50 [28]: 0.003 ± 0.001 µM
IC50 [29]: > 10 µM
IC50 [30]: > 10 µM
IC50 [31]: > 10 µM
IC50 [32]: > 10 µM
IC50 [33]: > 10 µM
IC50 [34]: > 10 µM
IC50 [35]: > 10 µM
IC50 [36]: > 10 µM
IC50 [37]: > 10 µM

— article PMC7313537 (PLoS ONE, 2020)
